The values that follow are results of earlier work, collected in patent publication US9890223B2, “Resin particles and process for producing same, antiglare film, light-diffusing resin composition, and external preparation” (SEKISUI PLASTICS CO., LTD., priority 2010, dated 2018).

The conditions of the data set: 20° C.
Regarding `C=C(C)C(=O)OCC(C)C` [Isobutyl methacrylate], the “Solubility in Water” value was 0.04 % by weight.

Take `C=C(C)C(=O)OCCCCCCCCCCCC` [Lauryl methacrylate]: the “Solubility in Water” value is reported as 0.01 or less % by weight.

For the compound `C=C(C)C(=O)OC` [Methyl methacrylate], the “Solubility in Water” value is given as 1.72 % by weight.

As for `C=C(C)C(=O)OCCCC` [n-butyl methacrylate], the “Solubility in Water” value is on record as 0.04 % by weight.

Turning to `C=C(C)C(=O)OC(C)(C)C` [tert-butyl methyacrylate], the “Solubility in Water” value is reported as 0.05 % by weight.
